Reference: patent publication US10174314B2, “MiRNA for treating head and neck cancer” (INTERNA TECHNOLOGIES B.V., priority 2011, dated 2019)
Entries after “also recorded” stand apart in the source; their conditions may differ.

How the values were obtained:
[1] = tested on: ciOKC cells; assay: ATM inhibitor treatment, CellTiter-Blue cell viability; assay type: cell-based, human; conditions: 72 hours
Procedure: (§1) Both ciOKC and VU-SCC-120 cells were subjected to a concentration range of 40-0.075 μM ATM inhibitor CP466722 (Axon Medchem, Groningen, The Netherlands). After 72 hours cell viability was assessed with the CellTiter-Blue® cell viability assay.

[2] = tested on: VU-SCC-120; assay: as above; assay type: cell-based, human
Procedure: as §1

[3] = tested on: ATM expression; assay: Knockdown of endogenous ATM expression by shRNA constructs, qRT-PCR in ciOKC; assay type: cell-based, human; conditions: ciOKC transduced with shRNA; qRT-PCR vs control construct
Procedure: (§2) Viral supernatants were produced by co-transfection of HEK239T cells using FuGENE® 6 (Roche diagnostics, Woerden, The Netherlands) with the pLKO.1 short-hairpin vector together with the packaging and envelop vectors. Both ciOKC and VU-SCC-120 (HNSCC cell line) were transduced with lentiviruses at two following days for four hours in the presence of 3 μg/ml polybrene (Sigma-Aldrich, Zwijndrecht, The Netherlands). In total 48 hours after transduction, cells were subjected to puromycin selection. For ciOKC this was two days 5 μg/ml and subsequently 5 days of 10 μg/ml puromycin (Sigma-Aldrich). For VU-SCC-120 the selection was performed with 1 μg/ml for seven days.
Total RNA was isolated using the mirVana™ miRNA isolation kit (Ambion, Nieuwerkerk aan den IJssel, The Netherlands) according to the instructions of the manufacturer with as only modification that the columns were eluted by 2×25 μl elution buffer. Expression of hsa-miR-181a, hsa-miR-323, hsa-miR-326, hsa-miR-342, hsa-miR-345 and hsa-miR-371 was analyzed by Taqman® microRNA assays following the instructions of the manufacturer (Applied biosystems, Nieuwerkerk aan den IJssel, The Netherlands). ATM expression was analysed by Taqman® gene expression assay. […] Quantitative RT-PCR reactions without reverse transcriptase were carried out in parallel for each RNA sample to exclude signal by contaminating DNA. […]

[4] = tested on: melanoma or colorectal cancer cells; conditions: Poell et al. 2012; cited from earlier work
[5] = tested on: VU-SCC-059; assay: miRNA-3157 mimic transfection, cell viability; assay type: cell-based, human; conditions: 30 nM, 96 hours
Procedure: (§3) Cells were plated and transfected with miRIDIAN microRNA mimics miR-181a, miR-181a*, miR-181a-2, miR-323-5p, miR-323-3p, miR-326-5p, miR-345-5p, miR-342-3p, miR-342-5p, miR-371-3p, miR-371-5p and non-targeting Mimic Negative Control#1 (Dharmacon, Thermo Fisher Scientific, Lafayette, Colo.) in 96-well flat bottom plates (Greiner Bio-One B.V., Alphen a/d Rijn, The Netherlands). MicroRNA mimic for miR-3157 was obtained from Ambion. The non-targeting siCONTROL#1, and the siRNA PLK1 SMARTpool (Dharmacon) were used as negative and positive controls, respectively. Cells were transfected with […] mimic/siRNA and cell line dependent amounts of DharmaFECT1 (Dharmacon) (Table 6). Cell viability was determined, 96 hours after transfection, by adding CellTiter-Blue reagent (Promega, Leiden, The Netherlands). After two hours of incubation at 37° C. fluorescence was analyzed at 540 nm excitation and 590 nm emission wavelength using an Infinite F200 microplate reader (Tecan, Giessen, The Netherlands).
(§4) The cell proliferation has been assessed 96 hours after the transfection of nucleic acids using Dharmafect and the read-out based on the Alamar Blue (resazurin) fluorescent dye for the assessment of mammalian cell cytotoxicity.

[6] = tested on: UM-SCC-11B; assay: miRNA-3157 mimic transfection, cell viability; assay type: cell-based, human; conditions: 30 nM, 96 hours
Procedure: as §3, §4

[7] = tested on: VU-SCC-120; assay: miRNA-3157 mimic transfection, cell viability; assay type: cell-based, human; conditions: 30 nM, 96 hours
Procedure: as §3, §4

[8] = tested on: activated BRAF pathway; conditions: in melanoma or colorectal cancer cells; reported; cited from earlier work
[9] = tested on: tumour cell lines; assay: Synthetic mimic/siRNA transfection, CellTiter-Blue cell viability, panel of cell lines; assay type: cell-based, human; conditions: 30 nM mimic, 96 hours after transfection
Procedure: as §3, §4

[10] = tested on: precursor line M3; assay: Synthetic mimic transfection, cell viability; assay type: cell-based, human; conditions: 30 nM mimic, 96 hours after transfection
Procedure: as §3, §4

[11] = tested on: normal keratinocytes; assay: miRNA-3157 mimic transfection, cell viability; assay type: cell-based, human; conditions: 30 nM, 96 hours
Procedure: as §3
Normal oral keratinocytes were isolated and cultured as previously described (van Zeeburg et al., 2010). […]
as §4

[12] = tested on: VU-SCC-120; assay: Lentiviral shRNA ATM knockdown, cell survival; assay type: cell-based, human; conditions: VU-SCC-120 vs ciOKC
Excerpt: Lentiviral vectors with short-hairpin RNA sequences targeting ATM were obtained from the TRC short-hairpin library (Sigma-Aldrich, Zwijndrecht, the Netherlands) that is available at VU university medical center. Each shRNA sequence is complementary to an unique part of the ATM mRNA sequence.
as §2
Therefore we introduced five lentiviral shRNA constructs designed to specifically knockdown ATM expression. Each shRNA sequence was complementary to an unique part of the ATM mRNA sequence.

In the case of `COc1cc2ncnc(-n3nc(-c4ccccn4)nc3N)c2cc1OC` [CP466722], the IC50 [1] is reported as 8.2 µM, the IC50 ([2]; VU-SCC-120, 72 hours) is reported as 2.6 µM and the “change of IC50 ciOKC to VU-SCC-120” value ([2]; p-value <0.05 by T-testing) is reported as 3 fold.

In the case of “ATM shRNA number 5: lentiviral pLKO.1 short-hairpin construct targeting ATM from the TRC library; probably SEQ ID NO: 359 (CCGGGCCGTCAACTAGAACATGATACTCGAGTATCATGTTCTAGTTGACGGCTTTTTG)”, the “downregulation of ATM expression levels” value [3] is reported as “no significant downregulation”.

In the case of “miRNA-3157: microRNA mimic for miR-3157 from Ambion; mature UUCAGCCAGGCUAGUGCAGUCU (SEQ ID NO: 364) (listed as RNA, chemistry not given here)”, the “lethality to melanoma or colorectal cancer cells” value [4] is listed as “lethal”, the cell viability [5] is listed as “inhibits cell viability” and the cell viability [6] is listed as “inhibits cell viability”. For the same molecule, the cell viability [7] was “inhibits cell viability”, the “inhibition of activated BRAF pathway” value [8] was “selective inhibitor of activated BRAF pathway” and the “cell viability in tumour cell lines” value [9] was “lethal for three out of four tumor cell lines”. The “cell viability in precursor line M3” value [10] was “not lethal” and the cell viability [11] was “not lethal; also recorded: does not inhibit cell viability”.

With “mimic 323-5p: miRIDIAN microRNA mimic (Dharmacon); AGGUGGUCCGUGGCGCGUUCGC (SEQ ID NO: 22) (listed as RNA, chemistry not given here)” the “cell viability in tumour cell lines” value [9] was “cause a decrease in all tumour cell lines”.

With “shRNA ATM1: lentiviral pLKO.1 short-hairpin construct targeting ATM from the TRC library; probably SEQ ID NO: 355 (CCGGCCTGCCAACATACTTTAAGTACTCGAGTACTTAAAGTATGTTGGCAGGTTTTTG)” the “toxicity in the tumour cell line as compared to the ciOKC cells (therapeutic window)” value [12] was “at least 8 times”.
